According to BindingDB's records for patent US20250197406 (1ST Biotherapeutics, 2025):

Molecular target: Mitogen-activated protein kinase kinase kinase kinase 1 (Homo sapiens, UniProt Q92918)
Experiment: HPK1 Kinase Assay
Description: HPK1 kinase activity was measured by Promega's ADP-Glo™ kinase assay. In this assay, 5 ng of recombinant human HPK1 (signalchem) is incubated with 5 μL of compounds (0.5% DMSO), 5 μL of MBP (0.5 μg/μl) and 5 μL of ATP (25 μM) in buffer (40 mM Tris, 7.5; 20 mM MgCl2; 0.1 mg/ml BSA; 50 μM DTT.). The assay was started by incubating the reaction mixture in a 96-well plate at 30° C. for 40 minutes. After the incubation, 25 μL ADP-Glo reagent was added and the reaction was incubated at room temperature for 40-min to stop the reaction and degrade residual ATP. The ADP product was then converted to ATP by adding 50 μL per well of detection reagent. Luminescence was detected after 30-min room temperature incubation with the Molecular device I3X plate reader. The IC50 values were calculated from a series of percent inhibition values determined at a range of inhibitor concentration using software routines as implemented in the GraphPad Prism 7 software and SigmaPlot13.0.

Chain of Mitogen-activated protein kinase kinase kinase kinase 1 (Q92918 whole entry): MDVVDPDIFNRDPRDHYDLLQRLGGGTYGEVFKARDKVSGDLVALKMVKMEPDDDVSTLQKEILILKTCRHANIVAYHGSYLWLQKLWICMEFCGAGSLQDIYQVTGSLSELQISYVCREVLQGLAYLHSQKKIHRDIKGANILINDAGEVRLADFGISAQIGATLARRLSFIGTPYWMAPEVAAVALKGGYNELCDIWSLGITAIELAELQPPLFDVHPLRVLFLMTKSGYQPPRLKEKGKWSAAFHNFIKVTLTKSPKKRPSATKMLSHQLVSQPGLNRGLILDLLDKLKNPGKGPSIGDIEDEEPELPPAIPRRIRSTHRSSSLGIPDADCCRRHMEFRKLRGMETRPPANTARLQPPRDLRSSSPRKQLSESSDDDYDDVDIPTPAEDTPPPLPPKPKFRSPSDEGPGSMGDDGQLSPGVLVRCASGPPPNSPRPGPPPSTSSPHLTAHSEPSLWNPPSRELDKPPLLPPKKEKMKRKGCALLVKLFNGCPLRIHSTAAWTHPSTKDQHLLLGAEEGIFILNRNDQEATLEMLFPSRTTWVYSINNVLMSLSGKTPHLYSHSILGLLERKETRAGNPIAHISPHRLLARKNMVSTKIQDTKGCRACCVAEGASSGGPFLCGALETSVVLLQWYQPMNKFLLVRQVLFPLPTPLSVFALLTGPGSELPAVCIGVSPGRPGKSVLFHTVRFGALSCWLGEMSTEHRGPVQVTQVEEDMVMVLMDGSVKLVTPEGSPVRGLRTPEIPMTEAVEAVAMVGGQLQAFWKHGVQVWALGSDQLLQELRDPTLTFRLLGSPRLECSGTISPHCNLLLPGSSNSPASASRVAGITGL

Row | IC50 [µM] | Structure (SMILES)
1 | < 0.1 | CC(C)Nc1c(F)c(Cl)c(-c2cn3cc(NC(=O)C4(F)CC4)nc3cn2)c2cn[nH]c12 [US20250197406, Example 52]
2 | < 0.1 | CC(=O)Nc1cn2cc(-c3c(Cl)c(F)c(NC(C)C)c4[nH]ncc34)ncc2n1 [US20250197406, Example 43]
